# Assay results: paper PMC4581252, “Permeability Study of Polyphenols Derived from a Phenolic-Enriched Hibiscus sabdariffa Extract by UHPLC-ESI-UHR-Qq-TOF-MS” (International Journal of Molecular Sciences, 2015)
# Columns and labels:
# Assay type in all cases: in vitro ADME, human
# Caco-2 cell monolayer [1] = experiment: Caco-2 permeability of encapsulated (liposome) PEHS extract: compounds detected in transport medium, cytoplasm and membrane; details: encapsulated PEHS 2500 μg/mL; for Compound detected in transport medium, Bas-Ap / Compound detected in transport medium, Ap-Bas: receiver chamber
# Excerpt: (§1) One of the aims of this study was to compare the intestinal absorption of HS compounds when the PEHS extract was in a free form or in an encapsulated formulation, using the Caco-2 model system. This model is a well-established in vitro model for the investigation of the intestinal permeability of different compounds or drugs. Prior to the transport studies, the Caco-2 cell monolayer was established and validated. Monolayer integrity and reliability were ensured by measuring the transepithelial electrical resistance (TEER) values, which remained stable during the assay with the experimental conditions assayed. Afterwards, samples from apical and basolateral compartments obtained at different time points and cytoplasmic and membrane fractions of the cell monolayer collected at the end of the assay (see Section 3.3 and Section 3.4) were analyzed by UHPLC-ESI-UHR-Qq-TOF-MS in order to identify which compounds crossed the Caco-2 cell monolayer.
# Primary aqueous extract was obtained from sun-dried calyces from plants harvested in Senegal, with an approximate plant-to-extract ratio of 5:1 as previously described. The purified PEHS extract was kindly provided by Monteloeder, Inc. (Elche, Alicante, Spain) and was essentially prepared as previously described. The retained phenolic fraction was finally eluted with 95% ethanol and 0.01% trifluoroacetic acid (TFA), rotatory evaporated and freeze-dried. The PEHS encapsulated formulation was performed using empty liposomes, whose final concentration was 2 mM, adding soy phosphatidylcholine to the blend. To permeabilize the liposome membrane ethanol 10% was used. The extract was dissolved in HBSS at the desired concentration (2500 μg/mL), stirred for 10 min, and finally filtered through 0.45 μm three times (PVD filter).
# (§2) To assess the potential intestinal absorption of PEHS and pure compounds, experiments were conducted using Caco-2 cells derived from human colorectal adenocarcinoma cells (obtained from the American Type Culture Collection). Cells were cultured in Dulbecco’s Modified Eagle Medium (DMEM) containing 10% (v/v) fetal bovine serum (FBS) and incubated at 37 °C in a humidified 5% CO2 air atmosphere. Cell monolayers were prepared by seeding 5 × 10^5 Caco-2cells/well on a six-well Transwell insert filter. Monolayers were used 19–22 days after seeding. The integrity of each cell monolayer was checked by measuring its transepithelial electrical resistance (TEER) with an epithelial voltohmmeter (EVOM, World Precision Instrument, Sarasota, FL, USA) before and after the experiments. The culture medium was replaced with fresh medium 24 h before the transport experiments. Compounds were added after washing the Caco-2 cell monolayer twice with pre-warmed HBSS medium (pH 7.4), in the apical or in the basolateral side, to evaluate the transport characteristics of the cells. Permeability studies were done by adding the PEHS solution at a concentration of 2500 μg/mL, quercetin at 18.1 μg/mL, quercetin-3-glucoside at 46.4 μg/mL, quercetin-3-glucuronide at 47.8 μg/mL, and N-feruloyltyramine at 31.3 μg/mL, while the receiving chamber contained the corresponding volume of transport medium. Samples were taken at different times (30, 60, 90, 120 min) and stored at −80 °C until their treatment.
# (§3) After the permeation study, the Caco-2 cell monolayer was collected and the cells were lysed with three subsequent freezing-thawing cycles followed by bath sonication, of 10 min each step. Then, the samples were centrifuged during 15 min at 14,000 rpm and 4 °C, and the supernatants (cytoplasmic fraction) and the pellets (membranes) were stored at −80 °C.
# (§4) The samples collected in the receiving chamber during the permeability assays were centrifuged for 15 min at 12,000 rpm and 4 °C. […] Finally, the samples were stored at −80 °C until the analysis, avoiding possible degradations.
# Caco-2 cell monolayer [2] = experiment: Caco-2 permeability of free PEHS extract: compounds detected in transport medium, cytoplasm and membrane; details: free PEHS 2500 μg/mL; for Compound detected in transport medium, Ap-Bas / Compound detected in transport medium, Bas-Ap: receiver chamber; for Compound detected in transport medium, Bas-Ap: basolateral to apical
# Excerpt: as §1, §2, §3, §4
# (§5) The cytoplasms and cell membranes collected at the end of the permeability assays were subjected to protein precipitation using methanol, vortex-mixed, kept at −20 °C for 2 h and centrifuged at 12,000 rpm for 15 min at 4 °C. Finally, the supernatants were evaporated in a vacuum concentrator, dissolved in 100 μL of methanol, and then spiked with 10 μg/mL of apigenin, used as an internal standard for their analysis.
# For the analysis of the samples, a Dionex Ultimate 3000 UHPLC (Thermo Scientific, Sunnyvale, CA, USA) was used coupled with an ultra-high resolution quadrupole time-of-flight mass spectrometer maXis (UHR-Qq-TOF-MS) from Bruker Daltonik (Bremen, Germany). The chromatographic separation was performed in a Zorbax Eclipse Plus C-18 column (4.6 × 150 mm, 1.8 μm) at a flow rate of 0.3 mL/min using an injection volume of 5 μL.
# Caco-2 cell monolayer [3] = experiment: Caco-2 permeation of pure compounds related to PEHS (individual permeability assays); details: for Concentration in the receptor chamber, Basolateral-Apical Flux: 30 min (so in the source); for Concentration in the receptor chamber, Basolateral-Apical Flux / Concentration in the receptor chamber, Apical-Basolateral Flux: donor: quercetin 18.1, quercetin-3-glucoside 46.4, quercetin-3-glucuronide 47.8, N-feruloyltyramine 31.3 μg/mL, X ± SD; for Absorption across the Caco-2 intestinal barrier model (in words): pure compounds
# Protocol: Standard calibration curves of the compounds under study were prepared using apigenin at a concentration of 10 μg/mL as an internal standard. […] The limits of detection (LODs) and limits of quantification (LOQs) for individual compounds in standard solutions were also calculated as S/N = 3 and S/N = 10, respectively, where S/N is the signal to noise ratio (Table 3). The compound concentrations were subsequently determined using the corrected area of each individual compound (three replicates) and by interpolation in the corresponding calibration curve. Repeatability of the proposed method was measured as the relative standard deviation (RSD, %) in terms of concentration. A mixed solution containing the analytes was injected several times (n = 3) on the same day (intraday precision) and three times on three consecutive days (interday precision, n = 9). Intraday repeatability of the method developed for all the analytes was from 0.11% to 1.93%, whereas the interday repeatability ranged from 0.17% to 2.06%.
# as §2, §3
# The samples collected in the receiving chamber during the permeability assays were centrifuged for 15 min at 12,000 rpm and 4 °C. The supernatant was spiked with apigenin stock solution, used as an internal standard at a concentration of 10 μg/mL, in order to avoid irreproducibility of results between analyses. Finally, the samples were stored at −80 °C until the analysis, avoiding possible degradations.
# as §5
# For the analysis of the samples, a Dionex Ultimate 3000 UHPLC (Thermo Scientific, Sunnyvale, CA, USA) was used coupled with an ultra-high resolution quadrupole time-of-flight mass spectrometer maXis (UHR-Qq-TOF-MS) from Bruker Daltonik (Bremen, Germany). […]
# [4] = cytoplasmic fraction at end of assay, apical to basolateral
# [5] = membrane fraction at end of assay, apical to basolateral
# [6] = membrane fraction at end of assay, basolateral to apical
"Compound detected in transport medium, Bas-Ap (Caco-2 cell monolayer [1]; basolateral to apical)","Compound detected in transport medium, Ap-Bas (Caco-2 cell monolayer [2]; apical to basolateral)","Compound detected in transport medium, Bas-Ap (Caco-2 cell monolayer [2])","Concentration in the receptor chamber, Basolateral-Apical Flux (Caco-2 cell monolayer [3])","Concentration in the receptor chamber, Apical-Basolateral Flux (Caco-2 cell monolayer [3]; 30 min)","Concentration in the receptor chamber, Apical-Basolateral Flux (Caco-2 cell monolayer [3]; 60 min)","Concentration in the receptor chamber, Apical-Basolateral Flux (Caco-2 cell monolayer [3]; 90 min)","Concentration in the receptor chamber, Apical-Basolateral Flux (Caco-2 cell monolayer [3]; 120 min)",Absorption across the Caco-2 intestinal barrier model (in words) (Caco-2 cell monolayer [3]),"Compound detected in cytoplasm, Ap-Bas (Caco-2 cell monolayer [1]; [4])",Molecule,also measured
+,+,+,–,–,–,–,–,–,–,O=C(/C=C/c1ccc(O)c(O)c1)O[C@@H]1CC(C(=O)O)=C[C@@H](O)[C@H]1O [5-O-caffeoylshikimic acid],–
+,+,+,1350 ± 40 ng/mL,690 ± 20 ng/mL,2300 ± 200 ng/mL,4200 ± 500 ng/mL,6600 ± 800 ng/mL,significant absorption,–,COc1cc(/C=C/C(=O)NCCc2ccc(O)cc2)ccc1O [N-feruloyltyramine],"Compound detected in transport medium, Ap-Bas (Caco-2 cell monolayer [1]; apical to basolateral): +"
+,+,+,–,–,–,–,–,–,+,O=C(/C=C/c1ccc(O)c(O)c1)O[C@H]1[C@H](O)C[C@](O)(C(=O)O)C[C@H]1O [Cryptochlorogenic acid],"Compound detected in cytoplasm, Bas-Ap (Caco-2 cell monolayer [1]; cytoplasmic fraction at end of assay, basolateral to apical): +; Compound detected in transport medium, Ap-Bas (Caco-2 cell monolayer [1]; apical to basolateral): +"
+,–,+,–,–,–,–,–,–,+,"COC(=O)c1cc(O)c(O)c(OC(=O)c2cc(O)c(O)c(O)c2)c1 [Methyldigallate, Methyl digallate]",–
–,+,+,1100 ± 400 ng/mL,280 ± 20 ng/mL,490 ± 30 ng/mL,1330 ± 20 ng/mL,1320 ± 10 ng/mL,significant absorption,+,O=c1c(O)c(-c2ccc(O)c(O)c2)oc2cc(O)cc(O)c12 [Quercetin],"Compound detected in cytoplasm, Ap-Bas (Caco-2 cell monolayer [2]; [4]): +; Compound detected in membrane, Ap-Bas (Caco-2 cell monolayer [2]; [5]): +; Time at which maximum permeation / maximum concentration was reached (Caco-2 cell monolayer [3]; both flux directions, sampling at 30, 60, 90, 120 min): 90 min; Final concentration in the basolateral-apical flux relative to the opposite flux (Caco-2 cell monolayer [3]; end of assay): around five-fold"
–,–,+,–,–,–,–,–,–,–,O=C(/C=C/c1ccc(O)cc1)O[C@@H]1C[C@](O)(C(=O)O)C[C@@H](O)[C@H]1O [Coumaroylquinic acid],"Compound detected in membrane, Bas-Ap (Caco-2 cell monolayer [1]; [6]): +"
–,–,–,<LOQ,not detected,not detected,not detected,<LOQ,lesser extent,–,O=C(O)[C@H]1O[C@@H](Oc2c(-c3ccc(O)c(O)c3)oc3cc(O)cc(O)c3c2=O)[C@H](O)[C@@H](O)[C@@H]1O [Quercetin-3-glucuronide],–
–,–,–,–,–,–,–,–,–,+,COC(=O)C1OC(=O)CC1(O)C(=O)OC (stereo not drawn) [Hibiscus acid dimethylesther],"Compound detected in membrane, Ap-Bas (Caco-2 cell monolayer [1]; [5]): +; Compound detected in membrane, Bas-Ap (Caco-2 cell monolayer [1]; [6]): +"
–,–,–,–,–,–,–,–,–,+,O=C1C[C@](O)(C(=O)O)[C@@H](C(=O)O)O1 [Hibiscus acid],–
–,–,+,–,–,–,–,–,–,–,Methylepigallocatechin,–

Molecule,"Compound detected in transport medium, Bas-Ap (Caco-2 cell monolayer [1]; basolateral to apical)","Compound detected in transport medium, Ap-Bas (Caco-2 cell monolayer [2]; apical to basolateral)","Compound detected in transport medium, Bas-Ap (Caco-2 cell monolayer [2])","Concentration in the receptor chamber, Basolateral-Apical Flux (Caco-2 cell monolayer [3])","Concentration in the receptor chamber, Apical-Basolateral Flux (Caco-2 cell monolayer [3]; 30 min)","Concentration in the receptor chamber, Apical-Basolateral Flux (Caco-2 cell monolayer [3]; 60 min)","Concentration in the receptor chamber, Apical-Basolateral Flux (Caco-2 cell monolayer [3]; 90 min)","Concentration in the receptor chamber, Apical-Basolateral Flux (Caco-2 cell monolayer [3]; 120 min)",Absorption across the Caco-2 intestinal barrier model (in words) (Caco-2 cell monolayer [3]),"Compound detected in cytoplasm, Ap-Bas (Caco-2 cell monolayer [1]; [4])",also measured
O=c1c(O[C@@H]2O[C@H](CO)[C@@H](O)[C@H](O)[C@H]2O)c(-c2ccc(O)c(O)c2)oc2cc(O)cc(O)c12 [Quercetin-3-glucoside],–,–,–,<LOQ,<LOQ,<LOQ,<LOQ,470 ± 30 ng/mL,lesser extent,–,–
